Reference: patent publication US11746111B2, “Siderophore conjugated pyrazolidinones, and analogues thereof” (YALE UNIVERSITY, priority 2018, dated 2023)
In brackets after ≈: the same amount, converted by molar mass. Where two headings read alike, the source gives them in different places.

Experiments:
[1] = system: K. pneumoniae clinical isolates; assay: Microdilution broth MIC, K. pneumoniae clinical isolates (Table 1); assay type: cell-based; conditions: Klebsiella pneumoniae
Experimental: (§1) Microdilution Broth Minimum Inhibitory Concentrations (MICs)
(§2) MICs were performed in triplicate in cation adjusted Mueller-Hinton (MH) broth 30 according to CLSI guidelines. Firstly, overnight cultures of E. coli and K. pneumoniae clinical isolates were inoculated into 5 ml MH broth to OD600=0.1 and grown to OD600=0.224 (approximately 1-2×10^8 CFU/ml). These cultures were diluted (3 μl+4997 μl MH) and 100 μl inoculated into each well of a 96-well plate containing 100 μl of serial dilutions of compound 26 (YU253434), ampicillin, ceftazidime, or imipenem. The plates were placed in a 37° C. incubator for 18-20 hours and wells checked for growth.

[2] = biological target: Pseudomonas aeruginosa penicillin binding protein 3 (PBP3) (Pseudomonas aeruginosa, UniProt G3XD46); assay: Inhibition of penicillin binding protein 3 (Bocillin based assay); conditions: Pseudomonas aeruginosa PBP3 (FIG. 5)
Sequence of Pseudomonas aeruginosa penicillin binding protein 3 (PBP3) (G3XD46 whole entry): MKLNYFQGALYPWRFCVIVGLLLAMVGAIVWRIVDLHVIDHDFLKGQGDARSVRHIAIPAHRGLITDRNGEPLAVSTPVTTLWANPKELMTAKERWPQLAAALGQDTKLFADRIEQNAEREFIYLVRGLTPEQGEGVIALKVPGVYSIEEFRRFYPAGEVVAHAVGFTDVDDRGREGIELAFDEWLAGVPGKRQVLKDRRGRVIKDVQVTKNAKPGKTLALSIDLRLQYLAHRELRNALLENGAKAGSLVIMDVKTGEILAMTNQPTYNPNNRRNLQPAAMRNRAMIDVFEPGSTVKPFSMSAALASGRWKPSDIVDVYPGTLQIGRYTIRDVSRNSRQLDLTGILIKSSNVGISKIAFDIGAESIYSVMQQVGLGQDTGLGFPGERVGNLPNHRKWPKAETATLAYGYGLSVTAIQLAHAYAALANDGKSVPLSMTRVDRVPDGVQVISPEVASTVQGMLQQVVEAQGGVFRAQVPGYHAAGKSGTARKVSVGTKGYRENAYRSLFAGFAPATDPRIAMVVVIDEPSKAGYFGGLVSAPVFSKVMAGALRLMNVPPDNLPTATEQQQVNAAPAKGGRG
Text: FIG. 5 is a graph showing compound 26 inhibiting Pseudomonas aeruginosa penicillin binding protein 3 (PBP3).
To assess the affinity of the inhibitors for PBP3 and PBP1a and PBP1b, a Bocillin based assay using PA01 membranes as well as purified proteins is used. Delineation of remarkably active compounds occurs by establishing the MIC90 against Ec, Pa, Ab and Kp as well as static time kill measurement. When siderophore linked pyrazolidinone agents show remarkable activity (i.e. activity equal to or greater than current clinical agents Meropenem or Aztreonam) in these latter secondary assays, they are tested in vivo in a mouse septicemia efficacy model after protein binding measurement and will show potent in vivo activity.

Pseudomonas aeruginosa = assay: MIC versus Pseudomonas aeruginosa strains incl. Class B metallo beta lactamases (Table 3); assay type: cell-based
Text: (§3) Tables 2 and 3 show MIC values of compound 26 (YU253434) and 42 YU253911 versus E. coli and P. Aeruginosa strains containing Class B metallo beta lactamases VIM and NDM compared with Meropenem as a standard.

E. coli = assay: MIC versus E. coli strains incl. Class B metallo beta lactamases (Table 2); assay type: cell-based; conditions: Escherichia coli
Text: as §3

[3] = system: E. coli clinical isolates; assay: Microdilution broth MIC, E. coli clinical isolates (Table 1); assay type: cell-based; conditions: Escherichia coli, read-out: MIC
Experimental: as §1, §2

[4] = ATCC27853, P. aeruginosa isolate ATCC 27853, CLSI control
[5] = P. aeruginosa isolate AR-229, OXA-50
[6] = P. aeruginosa isolate AR-230, VIM-2
[7] = P. aeruginosa isolate AR-231, KPC-5
[8] = P. aeruginosa isolate AR-232, OXA-50
[9] = P. aeruginosa isolate AR-245, VIM
[10] = P. aeruginosa isolate AR-249, VIM
[11] = P. aeruginosa isolate AR-254, VIM
[12] = P. aeruginosa isolate AR-270, OXA-50
[13] = P. aeruginosa isolate J4242, UNC-D
[14] = ATCC25822, E. coli isolate ATCC 25822, CLSI costrol
[15] = E. coli isolate AK-114, KPC-3, TEM-18
[16] = E. coli isolate AR-11, CTX-M-15, OxA-1
[17] = E. coli isolate J4245, Michigan

CC(C)(O/N=C(\C(=O)N[C@H]1CN2CC(C(=O)NCCN3C(=O)c4cc(O)c(O)cc4C3=O)=C(C(=O)O)N2C1=O)c1csc(N)n1)C(=O)O [Compound 26, (S,Z)-6-(2-(2-aminothiazol-4-yl)-2-(((2-carboxypropan-2-yl)oxy)imino)acetamido)-2-((2-(5,6-dihydroxy-1,3-dioxoisoindolin-2-yl)ethyl)carbamoyl)-5-oxo-6,7-dihydro-1H,5H-pyrazolo[1,2-a]pyrazole-3-carboxylic acid]
MIC ([1]; K. pneumoniae 7000063, β-lactamase SHV-18, read-out: MIC): 2 µg/mL (≈ 2.91 µM) | MIC ([1]; K. pneumoniae KB390 Quale, TEM-30, TEM-1, KPC-2, SHV-12, read-out: MIC): 2 µg/mL (≈ 2.91 µM) | MIC ([1]; K. pneumoniae LC40, CTX-M-1 grp(15), TEM (164S), read-out: MIC): 16 µg/mL (≈ 23.3 µM) | MIC ([1]; K. pneumoniae LC56, CTX-M-1 grp(15), read-out: MIC): 0.5 µg/mL (≈ 0.728 µM) | MIC ([1]; K. pneumoniae LC102, SHV-1 (WT + 238S), read-out: MIC): 1 µg/mL | MIC ([1]; K. pneumoniae LC121, SHV-1 (WT + 238S + 240K), read-out: MIC): 4 µg/mL | MIC ([1]; K. pneumoniae Rush23, CTX-M-9 group, read-out: MIC): 2 µg/mL (≈ 2.91 µM) | MIC ([1]; K. pneumoniae VA-368, KPC-2, TEM-1, SHV-5, SHV-68): 0.25 µg/mL (≈ 0.364 µM) | MIC ([1]; K. pneumoniae VA-384, KPC-2, TEM-1, SHV-11, SHV-12, SHV-14): 8 µg/mL (≈ 11.7 µM) | MIC ([1]; K. pneumoniae VA-398, KPC-3, TEM-1, SHV-11, SHV-12, SHV-27): 8 µg/mL (≈ 11.7 µM) | IC50 [2]: 2500 ± 500 nM | MIC (Pseudomonas aeruginosa; [4]): 0.25 µg/mL (≈ 0.364 µM) | MIC (Pseudomonas aeruginosa; [5]): 0.25 µg/mL (≈ 0.364 µM) | MIC (Pseudomonas aeruginosa; [6]): 1 µg/mL (≈ 1.46 µM) | MIC (Pseudomonas aeruginosa; [7]): 0.5 µg/mL (≈ 0.728 µM) | MIC (Pseudomonas aeruginosa; [8]): 0.5 µg/mL (≈ 0.728 µM) | MIC (Pseudomonas aeruginosa; [9]): 0.5 µg/mL (≈ 0.728 µM) | MIC (Pseudomonas aeruginosa; [10]): 1 µg/mL (≈ 1.46 µM) | MIC (Pseudomonas aeruginosa; P. aeruginosa isolate AR-252): 1 µg/mL (≈ 1.46 µM) | MIC (Pseudomonas aeruginosa; [11]): 2 µg/mL (≈ 2.91 µM) | MIC (Pseudomonas aeruginosa; [12]): 0.25 µg/mL (≈ 0.364 µM) | MIC (Pseudomonas aeruginosa; [13]): 0.5 µg/mL (≈ 0.728 µM) | MIC (E. coli; [14]): 2 µg/mL (≈ 2.91 µM) | MIC (E. coli; E. coli isolate AA-118, NDM): 4 µg/mL (≈ 5.83 µM) | MIC (E. coli; E. coli isolate AA-119, NDM): 4 µg/mL (≈ 5.83 µM) | MIC (E. coli; E. coli isolate AA-128, NDM): 4 µg/mL (≈ 5.83 µM) | MIC (E. coli; [15]): 0.5 µg/mL (≈ 0.728 µM) | MIC (E. coli; E. coli isolate AR-1, KPC-3): 1 µg/mL (≈ 1.46 µM) | MIC (E. coli; [16]): 0.5 µg/mL (≈ 0.728 µM) | MIC (E. coli; E. coli isolate AR-137, NDM-6): 4 µg/mL (≈ 5.83 µM) | MIC (E. coli; E. coli isolate AR-145, NDM): > 64 µg/mL | MIC (E. coli; E. coli isolate J4244, MN): 2 µg/mL (≈ 2.91 µM) | MIC (E. coli; [17]): 0.25 µg/mL (≈ 0.364 µM) | MIC ([3]; BAA202, E. coli BAA-202, SHV-1): 4 µg/mL (≈ 5.83 µM) | MIC ([3]; E. coli 35218, TEM-1): 0.125 µg/mL (≈ 0.182 µM) | MIC ([3]; E. coli LC4, TEM, SHV-12): 16 µg/mL (≈ 23.3 µM) | MIC ([3]; E. coli LC12, CTX-M-1 grp(15)): > 128 µg/mL | MIC ([3]; E. coli LC33, CTX-M-9 group): 1 µg/mL (≈ 1.46 µM) | MIC ([3]; E. coli LC38, CTX-M-1 grp(15), PB AmpC (ACT/MIR)): 0.25 µg/mL (≈ 0.364 µM) | MIC ([3]; E. coli LC41, TEM (238S), PB AmpC (ACT/MIR), CTX-M-1 grp(15)): 16 µg/mL (≈ 23.3 µM) | MIC ([3]; E. coli LC77, TEM, KPC): 0.5 µg/mL (≈ 0.728 µM) | MIC ([3]; E. coli LC81, SHV (238S + 240K)): 16 µg/mL | MIC ([3]; E. coli LC98, CMY (group II)): 4 µg/mL (≈ 5.83 µM) | MIC ([3]; E. coli LC109, CTX-M-9 group, CMY (group II)): 0.25 µg/mL (≈ 0.364 µM) | MIC ([3]; E. coli LC111, TEM (164S)): 1 µg/mL (≈ 1.46 µM) | MIC ([3]; E. coli LC136, SHV (WT + 238S)): 0.125 µg/mL | MIC ([3]; E. coli Rush24, CMY (group II)): 8 µg/mL (≈ 11.7 µM)

CC(C)(O/N=C(\C(=O)N[C@H]1CN2CC(C(=O)NCCN3C(=O)c4cc(O)c(O)cc4C3=O)=C(C(=O)O)N2C1=O)c1nc(N)sc1Cl)C(=O)O [Compound 42, (S,Z)-6-(2-(2-amino-5-chlorothiazol-4-yl)-2-(((2-carboxypropan-2-yl)oxy)imino)acetamido)-2-((2-(5,6-dihydroxy-1,3-dioxoisoindolin-2-yl)ethyl)carbamoyl)-5-oxo-6,7-dihydro-1H,5H-pyrazolo[1,2-a]pyrazole-3-carboxylic acid]
MIC (Pseudomonas aeruginosa; [4]): 0.5 µg/mL (≈ 0.693 µM) | MIC (Pseudomonas aeruginosa; [5]): 0.5 µg/mL (≈ 0.693 µM) | MIC (Pseudomonas aeruginosa; [6]): 1 µg/mL (≈ 1.39 µM) | MIC (Pseudomonas aeruginosa; [7]): 1 µg/mL (≈ 1.39 µM) | MIC (Pseudomonas aeruginosa; [8]): 0.5 µg/mL (≈ 0.693 µM) | MIC (Pseudomonas aeruginosa; [9]): 0.5 µg/mL (≈ 0.693 µM) | MIC (Pseudomonas aeruginosa; [10]): 1 µg/mL (≈ 1.39 µM) | MIC (Pseudomonas aeruginosa; P. aeruginosa isolate AR-252): 1 µg/mL (≈ 1.39 µM) | MIC (Pseudomonas aeruginosa; [11]): 2 µg/mL (≈ 2.77 µM) | MIC (Pseudomonas aeruginosa; [12]): 0.25 µg/mL (≈ 0.347 µM) | MIC (Pseudomonas aeruginosa; [13]): 0.5 µg/mL (≈ 0.693 µM) | MIC (E. coli; [14]): > 64 µg/mL | MIC (E. coli; E. coli isolate AA-118, NDM): > 64 µg/mL | MIC (E. coli; E. coli isolate AA-119, NDM): > 64 µg/mL | MIC (E. coli; E. coli isolate AA-128, NDM): > 64 µg/mL | MIC (E. coli; [15]): 2 µg/mL (≈ 2.77 µM) | MIC (E. coli; E. coli isolate AR-1, KPC-3): > 64 µg/mL | MIC (E. coli; [16]): 4 µg/mL (≈ 5.55 µM) | MIC (E. coli; E. coli isolate AR-137, NDM-6): > 64 µg/mL | MIC (E. coli; E. coli isolate AR-145, NDM): > 64 µg/mL | MIC (E. coli; E. coli isolate J4244, MN): > 64 µg/mL | MIC (E. coli; [17]): > 64 µg/mL

C[C@@H](O)[C@H]1C(=O)N2C(C(=O)O)=C(S[C@@H]3CN[C@H](C(=O)N(C)C)C3)[C@H](C)[C@H]12 [Meropenem]
MIC (Pseudomonas aeruginosa; [4]): 1 µg/mL (≈ 2.61 µM) | MIC (Pseudomonas aeruginosa; [5]): 64 µg/mL (≈ 167 µM) | MIC (Pseudomonas aeruginosa; [6]): > 64 µg/mL | MIC (Pseudomonas aeruginosa; [7]): > 64 µg/mL | MIC (Pseudomonas aeruginosa; [8]): 8 µg/mL (≈ 20.9 µM) | MIC (Pseudomonas aeruginosa; [9]): 32 µg/mL (≈ 83.4 µM) | MIC (Pseudomonas aeruginosa; [10]): > 64 µg/mL | MIC (Pseudomonas aeruginosa; P. aeruginosa isolate AR-252): 64 µg/mL (≈ 167 µM) | MIC (Pseudomonas aeruginosa; [11]): > 64 µg/mL | MIC (Pseudomonas aeruginosa; [12]): 4 µg/mL (≈ 10.4 µM) | MIC (Pseudomonas aeruginosa; [13]): 16 µg/mL (≈ 41.7 µM) | MIC (E. coli; [14]): ≤ 0.125 µg/mL | MIC (E. coli; E. coli isolate AA-118, NDM): > 64 µg/mL | MIC (E. coli; E. coli isolate AA-119, NDM): 64 µg/mL (≈ 167 µM) | MIC (E. coli; E. coli isolate AA-128, NDM): 64 µg/mL (≈ 167 µM) | MIC (E. coli; [15]): 4 µg/mL (≈ 10.4 µM) | MIC (E. coli; E. coli isolate AR-1, KPC-3): 4 µg/mL (≈ 10.4 µM) | MIC (E. coli; [16]): ≤ 0.125 µg/mL | MIC (E. coli; E. coli isolate AR-137, NDM-6): > 64 µg/mL | MIC (E. coli; E. coli isolate AR-145, NDM): > 64 µg/mL | MIC (E. coli; E. coli isolate J4244, MN): ≤ 0.125 µg/mL | MIC (E. coli; [17]): ≤ 0.125 µg/mL
